Results reported in article PMC9820444, “Design and Synthesis of Acridine-Triazole and Acridine-Thiadiazole Derivatives and Their Inhibitory Effect against Cancer Cells” (International Journal of Molecular Sciences, 2022).
Read-outs that look alike come from different tables or passages of the source. Marks after values point to notes of the source that are not given here.

Assays:
[1] = test system: T24 cells; assay: Apoptosis by Annexin V-FITC/PI flow cytometry, T24; type: cell-based, human; details: T24, at IC50 concentration (4h 8.05 μM; 6h 8.93 μM); control 1.18%
Protocol: The apoptosis ratios of MGC80-3 or T24 cell lines induced by the selected compounds at the concentration of IC50 and 0.5 IC50 were quantitatively determined by flow cytometry. Four quadrant images (Q1, Q2, Q3 and Q4) were observed by flow cytometric analysis. The results of apoptosis ratios (including the early and late apoptosis ratios) after 12 h are presented in Figure 6 (MGC80-3) and Figure 7 (T24). […] After treatment with compound 6h, 5.62% (3.43 μM) and 14.25% (6.85 μM) of the cells were apoptotic. These were higher percentages than the one observed in the control (0.586%). […] The results evidently illustrate that representative compounds 5d and 6h or 4h and 6h could suppress cell proliferation by inducing apoptosis in the early apoptotic period.
The apoptosis assay and the cell cycle analysis were carried out by cytometry (FACSVerse, BD, Piscataway, NJ, USA) at an excitation wavelength of 488 nm according to the method described in the literature with slight modifications. The cells were seeded at 2 × 10^6/well and washed by cold PBS. The buffer solutions were prepared using 0.1 M pH 7.4 Hepes/NaOH, 1.4 M NaCl, and 25 mM CaCl2.

[2] = test system: hepatocellular carcinoma bel-7404 (BEL-7404); assay: MTT antiproliferative assay, BEL-7404; type: cell-based, human; details: Homo sapiens, read-out: Effect against cell viability (IC50), BEL-7404
[3] = test system: human normal liver cells (LO2); assay: Cytotoxicity against normal liver cells LO2; type: cell-based; details: Homo sapiens, MTT, read-out: Effect against cell viability (IC50), LO2
[4] = test system: large cell lung cancer cells (NCI-H460); assay: MTT antiproliferative assay, NCI-H460; type: cell-based, human; details: Homo sapiens, read-out: Effect against cell viability (IC50), NCI-H460
[5] = test system: zebrafish embryos; details: zebrafish embryos 72 hpf

COc1ccc(-c2nnc(N=C3c4ccccc4NC4C=CC(C)=CC34)s2)cc1 (stereo not shown) [6h, 7-methyl-N-(5-(4-methoxyphenyl)-1,3,4-thiadiazol-2-yl)-10,10a-dihydroacridin-9(8aH)-imine]
apoptosis ratio [1]: 10.749%
IC50 [2]: 20.2 ± 1.59 µM
IC50 [3]: 43.8 ± 2.63 µM
IC50 [4]: 13.3 ± 1.39 µM
MAR (malformation rate) ([5]; 1 mg/mL): 35% ^b
MOR (mortality rate) ([5]; 1 mg/mL): 0%
MAR (malformation rate) ([5]; 1.5 mg/mL): 80% ^b
MOR (mortality rate) ([5]; 1.5 mg/mL): 0%
MAR (malformation rate) ([5]; 2 mg/mL): 65% ^b
MOR (mortality rate) ([5]; 2 mg/mL): 15% ^b
